Results taken from PubChem BioAssay (NCI).
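Step 1: Grow cells in 96-well plates. Step 2: Expose to compound for 48 hours at 5 concentrations. Step 3: Interpolate endpoints linearly; if unreached, use highest concentration. TGI: total growth inhibition.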

Columns and labels:
Experiment in all cases: DTP human tumour cell line panel, 48 h
HS 578T breast = test system: HS 578T breast
PC-3 prostate = test system: PC-3 prostate
SK-MEL-5 melanoma = test system: SK-MEL-5 melanoma
786-0 renal = test system: 786-0 renal
UO-31 renal = test system: UO-31 renal
HOP-62 NSCLC = test system: HOP-62 NSCLC
MDA-MB-435 = test system: MDA-MB-435
ACHN renal = test system: ACHN renal
M14 melanoma = test system: M14 melanoma
LOX IMVI melanoma = test system: LOX IMVI melanoma
NCI/ADR-RES ovarian = test system: NCI/ADR-RES ovarian
SF-295 CNS = test system: SF-295 CNS
MCF7 breast = test system: MCF7 breast
OVCAR-8 ovarian = test system: OVCAR-8 ovarian
COLO 205 colon = test system: COLO 205 colon
HOP-92 NSCLC = test system: HOP-92 NSCLC
SF-268 CNS = test system: SF-268 CNS
SN12C renal = test system: SN12C renal
KM12 colon = test system: KM12 colon
T-47D breast = test system: T-47D breast
MDA-N = test system: MDA-N
HL-60(TB) leukemia = test system: HL-60(TB) leukemia
U251 CNS = test system: U251 CNS
RPMI-8226 leukemia = test system: RPMI-8226 leukemia
OVCAR-5 ovarian = test system: OVCAR-5 ovarian
UACC-62 melanoma = test system: UACC-62 melanoma
SNB-75 CNS = test system: SNB-75 CNS
HCT-15 colon = test system: HCT-15 colon
BT-549 breast = test system: BT-549 breast
NCI-H460 lung = test system: NCI-H460 lung
MOLT-4 leukemia = test system: MOLT-4 leukemia
HCT-116 colon = test system: HCT-116 colon
SF-539 CNS = test system: SF-539 CNS
SR leukemia = test system: SR leukemia
NCI-H522 lung = test system: NCI-H522 lung
CAKI-1 renal = test system: CAKI-1 renal
TK-10 renal = test system: TK-10 renal
SNB-19 CNS = test system: SNB-19 CNS
NCI-H226 lung = test system: NCI-H226 lung
A498 renal = test system: A498 renal
SK-MEL-28 melanoma = test system: SK-MEL-28 melanoma
UACC-257 melanoma = test system: UACC-257 melanoma
OVCAR-3 ovarian = test system: OVCAR-3 ovarian
IGROV1 ovarian = test system: IGROV1 ovarian
SW-620 colon = test system: SW-620 colon
HT29 colon = test system: HT29 colon
MDA-MB-231 breast = test system: MDA-MB-231 breast
NCI-H23 lung = test system: NCI-H23 lung
MALME-3M melanoma = test system: MALME-3M melanoma
SK-OV-3 ovarian = test system: SK-OV-3 ovarian
K-562 leukemia = test system: K-562 leukemia
HCC-2998 colon = test system: HCC-2998 colon
SK-MEL-2 melanoma = test system: SK-MEL-2 melanoma
CCRF-CEM leukemia = test system: CCRF-CEM leukemia
EKVX NSCLC = test system: EKVX NSCLC
A549 NSCLC = test system: A549 NSCLC
OVCAR-4 ovarian = test system: OVCAR-4 ovarian
DU-145 prostate = test system: DU-145 prostate
RXF 393 renal = test system: RXF 393 renal

Measured: TGI

C=C(C)[C@@H]1CC[C@]2(C)CC[C@]3(C)[C@H](CC[C@@H]4[C@@]5(C)CC[C@H](OC(=O)c6ccccc6)C(C)(C)[C@@H]5CC[C@]43C)[C@@H]12
not listed: RXF 393 renal
> 100 µM: all other assays above

N#Cc1nc(C2CC2)oc1N
not listed: SK-MEL-5 melanoma | UO-31 renal | HL-60(TB) leukemia | NCI-H460 lung | A498 renal
> 100 µM: all other assays above

N#Cc1nc(CSCc2ccccc2)oc1N
not listed: SK-MEL-5 melanoma | LOX IMVI melanoma | HL-60(TB) leukemia | RPMI-8226 leukemia | SNB-75 CNS | SNB-19 CNS | K-562 leukemia | EKVX NSCLC
> 100 µM: all other assays above

CCOC(=O)N1CCN(c2c(C)nc(C)[nH]c2=O)CC1
not listed: OVCAR-5 ovarian | SNB-75 CNS | SK-MEL-2 melanoma
> 100 µM: all other assays above
